Source: patent US5670331A, “Methods for optimizing fluoropyrimidine cancer therapy” (The University of Alabama Research Foundation, priority 1995, dated 1997)

Assays:
Format in all cases: biochemical
Nucleoside Kinases [1] = experiment: Pyrimidine nucleoside kinase kinetics, human liver; details: substrate of nucleoside kinases; for Km / Vmax: 37° C.
Procedure: (§1) Enzyme activities were determined isotopically as the products, nucleotides, nucleosides, bases, β-amino-acid, etc. formed from their respective radiolabeled substrates, bases and/or nucleosides. All assays were run at 37° C. under conditions where activity was linear with time and enzyme concentration. […] Reactions were started by the addition of extract and stopped by boiling in a water bath for 2 minutes followed by freezing. Precipitated proteins were removed by centrifugation. A 10-25 μl aliquot of the supernatant fluid was spotted on the appropriate TLC plate and developed in the appropriate solvent system. Separated substrate and product(s) were counted on a TLC Analyzer (Berthold). The amounts of substrate and product(s) were calculated on a percentage basis.
(§2) The assay mixture contained 50 mM Tris-Cl, pH 7.4; 3-60 μM radiolabeled nucleoside ([2-^14 C]thymidine or [2-^14 C]5-fluoro-2'-deoxyuridine); 2.5 mM ATP; 5 mM creatine phosphate; 25 mM NaF; and 50 μl of sonicate to which was added a dash of phosphocreatine kinase in a final volume of 100 μl. After termination of the reaction and centrifugation, the supernatant was spotted on silica gel TLC plates. The plates were developed in a solution of chloroform:methanol:acetic acid (56:24:4, v/v/v) to separate the nucleosides which migrate with the front from the nucleotides which remain at the origin. When assaying patients, the assays are run at about 4.4 μM 5-fluoro-2'-deoxyuridine or about 6.4 μM thymidine.
(§3) The apparent Km and Vmax, as well as the enzyme efficiency values were calculated using computer programs based on Wilkinson-Cleland procedures. Because of the number of patients used, a two-tailed t-test was applied to determine the degree of significance of the difference in enzymatic activities between healthy volunteers, tolerant and intolerant subjects.

Nucleoside Phosphorylase [2] = experiment: Pyrimidine nucleoside phosphorylase kinetics, human liver; details: substrate of nucleoside phosphorylase; for Km / Vmax: 37° C.
Procedure: as §1
(§4) The assay mixture contained Buffer A, 33-600 μM radiolabeled nucleoside ([2-^14 C]uridine, [2-^14 C]thymidine or [2-^14 C]5-fluoro-2'-deoxyuridine), and 50 μl of sonicate in a final volume of 100 μl. After termination of the reaction and centrifugation, the nucleosides were separated from their respective nucleobases on silica gel TLC plate developed with chloroform:methanol:acetic acid (90:5:5 v/v/v). When assaying patients, the assay is run at about 226 μM 5-fluoro-2'-deoxyuridine, about 169 μM thymidine or about 114 μM uridine.
as §3

Nucleoside Kinases [3] = experiment: Pyrimidine nucleoside kinase kinetics, human mononuclear cell sonicate; details: substrate of nucleoside kinases, human mononuclear cells; for Km / Vmax: 37° C.
Procedure: (§5) All procedures are carried out at room temperature, using solutions preheated to 37° C. Blood samples were withdrawn in aliquots of 30 ml into 60 ml syringes, containing 5 ml heparin (1,000 Units/ml). Blood and heparin were immediately mixed by inverting the syringes. The mixture was layered onto HISTOPAQUE-1077 (15 ml), in a 50 ml conical centrifuge tube and centrifuged for 30 minutes at 400 ×g. The upper layer was then aspirated with a Pasteur pipet and discarded, while the opaque interface containing the mononuclear cells was aspirated into a fresh conical tube containing 10 ml growth medium (RPMI-1640 medium: 5% FBS:0.050M HEPES, pH 7.4) and mixed by inverting the tubes. The cells were pelleted by centrifugation for 10 minutes at 250 ×g then resuspended into fresh growth medium by gentle aspiration with a Pasteur pipet. After two more washing, the cells were suspended into 10 ml fresh growth media.
(§6) The following buffers were used: Buffer A (20 mM potassium phosphate, pH 8.0) and Buffer B (50 mM Tris-Cl, pH 7.5). Mononuclear cells were washed 2-3 times as described above except that buffer B was substituted for the growth medium. The cells were then sonicated (1:2 v/v) in buffer B using a sonic dismembrator (Fisher model 300). The sonicate was then used as the enzyme source.
as §1, §2, §3

Nucleoside Phosphorylase [4] = experiment: Pyrimidine nucleoside phosphorylase kinetics, human mononuclear cell sonicate; details: substrate of nucleoside phosphorylase, human mononuclear cells; for Km / Vmax: 37° C.
Procedure: as §5, §6, §1, §4, §3

SMILES | Vmax /Km (Nucleoside Kinases [1]) | Km (Nucleoside Kinases [1]) | Vmax (Nucleoside Kinases [1]) | Vmax /Km (Nucleoside Phosphorylase [2]) | Km (Nucleoside Phosphorylase [2]) | Vmax (Nucleoside Phosphorylase [2]) | Vmax /Km (Nucleoside Kinases [3]) | Km (Nucleoside Kinases [3]) | Vmax (Nucleoside Kinases [3]) | Vmax /Km (Nucleoside Phosphorylase [4]) | Km (Nucleoside Phosphorylase [4]) | Vmax (Nucleoside Phosphorylase [4])
O=c1[nH]c(=O)n([C@@H]2O[C@H](CO)[C@@H](O)[C@H]2O)cc1F [5-Fluorouridine] | 0.50 min^-1 × 10^3 | 25.1 µM | 0.013 nmol/min/mg | 8.62 min^-1 × 10^3 | 286 µM | 2.470 nmol/min/mg | – | – | – | – | – | –
Cc1cn([C@H]2C[C@H](O)[C@@H](CO)O2)c(=O)[nH]c1=O [Thymidine, thymidine] | 4.00 min^-1 × 10^3 | 6.41 µM | 0.025 nmol/min/mg | 76.15 min^-1 × 10^3 | 256 µM | 19.471 nmol/min/mg | 2.40 min^-1 × 10^3 | 6.45 µM | 0.015 nmol/min/mg | 6.34 min^-1 × 10^3 | 168 µM | 1.068 nmol/min/mg
O=c1ccn([C@@H]2O[C@H](CO)[C@@H](O)[C@H]2O)c(=O)[nH]1 [Uridine, uridine] | 0.55 min^-1 × 10^3 | 55.8 µM | 0.031 nmol/min/mg | 172.00 min^-1 × 10^3 | 99.1 µM | 1.703 nmol/min/mg | 7.00 min^-1 × 10^3 | 40.3 µM | 0.027 nmol/min/mg | 3.79 min^-1 × 10^3 | 114 µM | 0.431 nmol/min/mg
O=c1[nH]c(=O)n([C@H]2C[C@H](O)[C@@H](CO)O2)cc1F [5-Fluoro-2'-deoxyuridine, 5-fluoro-2'-deoxyuridine] | 5.17 min^-1 × 10^3 | 3.1 µM | 0.016 nmol/min/mg | 111.90 min^-1 × 10^3 | 215 µM | 24.041 nmol/min/mg | 2.89 min^-1 × 10^3 | 4.39 µM | 0.013 nmol/min/mg | 6.22 min^-1 × 10^3 | 226 µM | 1.404 nmol/min/mg
